{
  "source": "paper PMC4037836",
  "about": "(British Journal of Cancer, 2014)",
  "key": {"[1]": {"test": "Plasma pharmacokinetics of paclitaxel, pazopanib and lapatinib in cycle 1", "assay_type": "in vivo, human", "conditions": "for AUC(0-t) / Cmax / half-life / AUC(0-inf): human, plasma; for AUC(0-t): Lapatinib AUC(0–24)"}, "CYP2C8": {"test_system": "CYP2C8", "assay_type": "in vivo, human", "conditions": "increase in paclitaxel AUC and Cmax less than two-fold in the presence of pazopanib and lapatinib"}, "[2]": {"conditions": "pazopanib and lapatinib combination, daily; ref de Jonge et al, 2013; cited from earlier work"}, "CYP3A4": {"test_system": "CYP3A4", "assay_type": "in vivo, human", "conditions": "increase in paclitaxel AUC and Cmax less than two-fold in the presence of pazopanib and lapatinib"}, "[3]": {"conditions": "pazopanib in combination with paclitaxel; ref Tan et al, 2010; cited from earlier work"}, "[4]": {"conditions": "day 15 of cycle 1, paclitaxel 50 mg m^−2, pazopanib 400 mg, lapatinib 1000 mg, n=6, geometric mean (95% confidence interval)"}, "[5]": {"conditions": "day 15 of cycle 1, paclitaxel 50 mg m^−2, pazopanib 800 mg, lapatinib 1000 mg, n=3, median (range)"}, "[6]": {"conditions": "day 15 of cycle 1, paclitaxel 80 mg m^−2, pazopanib 400 mg, lapatinib 1000 mg, n=9, geometric mean (95% confidence interval)"}, "[7]": {"conditions": "day 15 of cycle 1, paclitaxel 80 mg m^−2, pazopanib 800 mg, lapatinib 1000 mg, n=1, individual value"}, "[8]": {"conditions": "patients receiving pazopanib 400 mg, lapatinib 1000 mg"}},
  "data": [
    {"molecule": "5-((4-((2,3-dimethyl-2H-indazol-6-yl)methylamino]-2-pyrimidinyl)amino)-2-methyl-benzenesulfonamide [pazopanib]", "values": [
      {"measurement": "Pazopanib AUC(0–24)", "setting": "[1]; [4]", "value": "633 (279, 1436) μg*hr ml^−1"},
      {"measurement": "Pazopanib Cmax", "setting": "[1]; [4]", "value": "31.7 (14.6, 68.8) μg ml^−1"},
      {"measurement": "Pazopanib AUC(0–24)", "setting": "[1]; [5]", "value": "960 (736, 1620) μg*hr ml^−1"},
      {"measurement": "Pazopanib Cmax", "setting": "[1]; [5]", "value": "48.9 (40.7, 80.9) μg ml^−1"},
      {"measurement": "Pazopanib AUC(0–24)", "setting": "[1]; [6]", "value": "646 (432, 967) μg*hr ml^−1"},
      {"measurement": "Pazopanib Cmax", "setting": "[1]; [6]", "value": "32 (21.9, 46.9) μg ml^−1"},
      {"measurement": "Pazopanib AUC(0–24)", "setting": "[1]; [7]", "value": 1027, "unit": "µg·h/mL"},
      {"measurement": "Pazopanib Cmax", "setting": "[1]; [7]", "value": 57.4, "unit": "µg/mL"},
      {"measurement": "Change in mean AUC0–24 of pazopanib with a two-fold increase in pazopanib dose", "setting": "[1]; pazopanib 400–800 mg per day", "value": "less than two-fold increase"},
      {"measurement": "Change in mean Cmax of pazopanib with a two-fold increase in pazopanib dose", "setting": "[1]; pazopanib 400–800 mg per day", "value": "less than two-fold increase"},
      {"measurement": "Inhibition of CYP2C8 (classification)", "setting": "CYP2C8", "value": "weak inhibitors"},
      {"measurement": "Recommended phase II dosing", "setting": "[2]", "value": 800, "unit": "mg"}
    ]},
    {"molecule": "CS(=O)(=O)CCNCc1ccc(-c2ccc3ncnc(Nc4ccc(OCc5cccc(F)c5)c(Cl)c4)c3c2)o1", "note": "[lapatinib]", "values": [
      {"measurement": "Lapatinib Cmax", "setting": "[1]; [6]", "value": "1.95 (1.13, 3.37) μg ml^−1"},
      {"measurement": "AUC(0-t)", "setting": "[1]; oral, day 15 of cycle 1, paclitaxel 50 mg m^−2, pazopanib 400 mg, lapatinib 1000 mg, n=6, geometric mean (95% confidence interval)", "value": 20, "unit": "µg·h/mL"},
      {"measurement": "AUC(0-t)", "setting": "[1]; oral, day 15 of cycle 1, paclitaxel 50 mg m^−2, pazopanib 800 mg, lapatinib 1000 mg, n=3, median (range)", "value": 51.4, "unit": "µg·h/mL"},
      {"measurement": "AUC(0-t)", "setting": "[1]; oral, day 15 of cycle 1, paclitaxel 80 mg m^−2, pazopanib 400 mg, lapatinib 1000 mg, n=9, geometric mean (95% confidence interval)", "value": 27.1, "unit": "µg·h/mL"},
      {"measurement": "AUC(0-t)", "setting": "[1]; oral, day 15 of cycle 1, paclitaxel 80 mg m^−2, pazopanib 800 mg, lapatinib 1000 mg, n=1, individual value", "value": 11.6, "unit": "µg·h/mL"},
      {"measurement": "Cmax", "setting": "[1]; oral, Lapatinib Cmax, day 15 of cycle 1, paclitaxel 50 mg m^−2, pazopanib 400 mg, lapatinib 1000 mg, n=6, geometric mean (95% confidence interval)", "value": 1270, "unit": "ng/mL"},
      {"measurement": "Increase in AUC0–24 of lapatinib on increasing paclitaxel from 50 to 80 mg m^−2", "setting": "[1]; [8]", "value": 1.4, "unit": "fold"},
      {"measurement": "Increase in Cmax of lapatinib on increasing paclitaxel from 50 to 80 mg m^−2", "setting": "[1]; [8]", "value": 1.5, "unit": "fold"},
      {"measurement": "Inhibition of CYP3A4 (classification)", "setting": "CYP3A4", "value": "weak inhibitors"},
      {"measurement": "Inhibition of CYP2C8 (classification)", "setting": "CYP2C8", "value": "weak inhibitors"},
      {"measurement": "Recommended phase II dosing", "setting": "[2]", "value": 1500, "unit": "mg"}
    ]},
    {"molecule": "CC(=O)O[C@H]1C(=O)[C@@]2(C)[C@H]([C@H](OC(=O)c3ccccc3)[C@]3(O)C[C@H](OC(=O)[C@H](O)[C@@H](NC(=O)c4ccccc4)c4ccccc4)C(C)=C1C3(C)C)[C@]1(OC(C)=O)CO[C@@H]1C[C@@H]2O", "note": "[paclitaxel]", "values": [
      {"measurement": "Paclitaxel CL", "setting": "[1]; day 15, 50 mg m^−2 paclitaxel+400 mg pazopanib+1000 mg lapatinib, n=4, geometric mean (95% confidence interval)", "value": "16.3 (14.8, 17.9) l h^−1 m^−2"},
      {"measurement": "Paclitaxel CL", "setting": "[1]; day 15, 50 mg m^−2 paclitaxel+800 mg pazopanib+1000 mg lapatinib, n=3, median (range)", "value": "16.3 (14.9, 20.3) l h^−1 m^−2"},
      {"measurement": "Paclitaxel CL", "setting": "[1]; day 15, 80 mg m^−2 paclitaxel+400 mg pazopanib+1000 mg lapatinib (MTR), n=9, geometric mean (95% confidence interval)", "value": "15.3 (13.2, 17.8) l h^−1 m^−2"},
      {"measurement": "Paclitaxel CL", "setting": "[1]; day 15, 80 mg m^−2 paclitaxel+800 mg pazopanib+1000 mg lapatinib, n=1, individual value", "value": 18.3, "unit": "l h^−1 m^−2"},
      {"measurement": "half-life", "setting": "[1]; intravenous", "value": 14.8, "unit": "h"},
      {"measurement": "AUC(0-inf)", "setting": "[1]; intravenous, 50 mg m^−2", "value": 2.15, "unit": "µg·h/mL"},
      {"measurement": "Cmax", "setting": "[1]; intravenous, 50 mg m^−2", "value": 1440, "unit": "ng/mL"},
      {"measurement": "half-life", "setting": "[1]; intravenous, 50 mg m^−2", "value": 11.7, "unit": "h"},
      {"measurement": "Cmax", "setting": "[1]; intravenous, 50 mg m^−2, Paclitaxel Cmax, day 1 (pazopanib and lapatinib withheld), 50 mg m^−2 paclitaxel+800 mg pazopanib+1000 mg lapatinib, n=3, median (range)", "value": 1270, "unit": "ng/mL"},
      {"measurement": "AUC(0-inf)", "setting": "[1]; intravenous, 80 mg m^−2", "value": 3.82, "unit": "µg·h/mL"},
      {"measurement": "Cmax", "setting": "[1]; intravenous, 80 mg m^−2", "value": 2290, "unit": "ng/mL"},
      {"measurement": "Cmax", "setting": "[1]; intravenous, 80 mg m^−2, Paclitaxel Cmax, day 1 (pazopanib and lapatinib withheld), 80 mg m^−2 paclitaxel+800 mg pazopanib+1000 mg lapatinib, n=3, median (range)", "value": 3320, "unit": "ng/mL"},
      {"measurement": "AUC(0-inf)", "setting": "[1]; intravenous, Paclitaxel AUC(0-∞), day 15, 50 mg m^−2 paclitaxel+800 mg pazopanib+1000 mg lapatinib, n=3, median (range)", "value": 3.06, "unit": "µg·h/mL"},
      {"measurement": "AUC(0-inf)", "setting": "[1]; intravenous, Paclitaxel AUC(0-∞), day 15, 80 mg m^−2 paclitaxel+400 mg pazopanib+1000 mg lapatinib (MTR), n=9, geometric mean (95% confidence interval)", "value": 5.23, "unit": "µg·h/mL"},
      {"measurement": "AUC(0-inf)", "setting": "[1]; intravenous, Paclitaxel AUC(0–∞), day 15, 50 mg m^−2 paclitaxel+400 mg pazopanib+1000 mg lapatinib, n=4, geometric mean (95% confidence interval)", "value": 3.07, "unit": "µg·h/mL"},
      {"measurement": "AUC(0-inf)", "setting": "[1]; intravenous, Paclitaxel AUC(0–∞), day 15, 80 mg m^−2 paclitaxel+800 mg pazopanib+1000 mg lapatinib, n=1, individual value", "value": 4.37, "unit": "µg·h/mL"},
      {"measurement": "Cmax", "setting": "[1]; intravenous, Paclitaxel Cmax, day 15, 50 mg m^−2 paclitaxel+400 mg pazopanib+1000 mg lapatinib, n=5, geometric mean (95% confidence interval)", "value": 2330, "unit": "ng/mL"},
      {"measurement": "Cmax", "setting": "[1]; intravenous, Paclitaxel Cmax, day 15, 50 mg m^−2 paclitaxel+800 mg pazopanib+1000 mg lapatinib, n=3, median (range)", "value": 1720, "unit": "ng/mL"},
      {"measurement": "Cmax", "setting": "[1]; intravenous, Paclitaxel Cmax, day 15, 80 mg m^−2 paclitaxel+800 mg pazopanib+1000 mg lapatinib, n=1, individual value", "value": 2710, "unit": "ng/mL"},
      {"measurement": "Increase in Cmax of paclitaxel relative to paclitaxel alone", "setting": "[3]", "value": 36, "unit": "%"},
      {"measurement": "Increase in geometric mean AUC of paclitaxel relative to paclitaxel alone", "setting": "[3]", "value": 26, "unit": "%"}
    ]}
  ]
}
